{
  "source": "patent US9970037B2",
  "about": "“Methods and materials for making simvastatin and related compounds” (The Regents of the University of California, priority 2006, dated 2018)",
  "key": {"[1]": {"test_system": "E. coli BL21(DE3)/pAW31", "assay": "Whole cell biocatalysis with E. coli overexpressing LovD", "type": "cell-based, Escherichia coli", "protocol": "The BL21(DE3)/pAW31 overexpression strain was grown in a shake flask (200 mL) to an OD600 of 1.0, at which time 1 mM IPTG, 0.8 mM monacolin J and 4 mM of either benzoyl-SNAC or benzoyl-SMTG were added to the culture. Expression of LovD and bioconversion was performed at 18° C. The culture was extracted and analyzed for the formation of 8-benzoyl-monacolin J. When supplemented with benzoyl-SNAC, 84% conversion of monacolin J was detected within 20 hours post-induction. The product was lactonized and purified by a single silica-gel chromatography step. The NMR spectra confirmed the regioselective benzoylation of the C8 hydroxyl group as the diagnostic H8 multiplet is shifted downfield to δ 5.61.\nFermentation conditions: 500 mL culture with LB media with 30 mg/L kanamycin. At OD600 of 1.0, cells were concentrated to a final OD600 of 5.0 and induced with 1 mM IPTG. Substrates monacolin J and α-dimethylbutyryl-SNAC were added to a final concentration of 1 mM and 4 mM. At different time points, culture samples were collected, centrifuged, filtered and injected on to HPLC (20 μL). Extraction conditions: When maximum conversion was reached, the broth was acidified to pH of 2.0, extracted with ethyl acetate, dried and redissolved in toluene.\n(§1) Whole-cell catalytic synthesis of simvastatin acid from MJ acid and DMB-S-MMP were performed as described (see, e.g., Xie et al., (2007) Appl Environ Microbiol 73: 2054-2060). The E. coli BL21(DE3)/pAW31 and YT2/pAW31 strains were cultured side-by-side for comparison. A single colony of the freshly transformed strains was used to inoculate a 5 mL LB culture supplemented with 35 mg/L kanamycin and grown overnight at 37° C. The next morning, 100 μL of the overnight culture was inoculated into 50 mL cultures containing LB broth, F1 minimal medium and F1 medium supplemented with 0.15 mg/L biotin. Growth rates were monitored by periodically measuring the OD600 reading. When OD600 reached ˜0.5, 100 μM IPTG was added to the culture and expression of LovD was performed at 20° C. for 16 hours. To mimic high density fermentation conditions, the cells were concentrated 10-fold before addition of substrates. Typically, a 14 mL aliquot of the culture was transferred to a 15 mL centrifuge tube and the cells were collected by centrifugation (4° C., 4000 g, 10 minutes). The cell pellet was gently resuspended in 1316 μl of the supernatant, followed by addition of 84 μl of a MJ acid stock solution (250 mM in H2O) (final concentration 15 mM). The concentrated culture was then separated into seven 200 μL samples and 1.2 μL of pure DMB-S-MMP was added to each sample (final concentration ˜25 mM). The culture was then shaken at 300 rpm at room temperature. At each time point, a total extraction was performed by adding 10 μL 20% SDS to lyse the cells, followed by liquid-liquid extraction with 500 μL EA/1% AcOH. The organic phase was removed, evaporated, and redissolved in 50 μL ACN for HPLC analysis. For the BL21(DE3) sample, an additional 1.2 μL aliquot of DMB-S-MMP was added after 12 hours to replenish the hydrolyzed substrates.\nThe E. coli BL21(DE3)/pAW31 strain was grown in LB medium at 37° C. to an OD600 of 0.5, at which time 100 μM IPTG was added to the culture and expression was performed at RT for 16 hours. A 10 ml culture was transferred to a 15 mL centrifuge tube. The cells were collected by centrifugation (4000 g, 10 minutes). The cell pellet was resuspended in 957 μl of the supernatant. The pH was adjusted to pH 7.9 with 1.0 N NaOH, followed by addition of 33 μl 450 mM MJ (final concentration 15 mM) and 6 μl pure DMB-S-MMP (final concentration ˜25 mM). The culture was then shaken at 300 rpm at room temperature. At each time point, a 4 μL aliquot was removed from the reaction mixture, quenched in 300 μL ethyl acetate containing 1% TFA."}, "[2]": {"test_system": "YT2/pAW31", "assay": "Whole cell biocatalysis with ΔbioH E. coli overexpressing LovD", "type": "cell-based, Escherichia coli", "conditions": "15 mM MJ acid, 25 mM DMB-S-MMP, less than 12 hours", "protocol": "as §1, with “The culture was then shaken at 300 rpm at room temperature. At each time point, a total extraction was performed by adding 10 μL 20% SDS to lyse the cells, followed by liquid-liquid extraction with 500 μL EA/1% AcOH. The organic phase was removed, evaporated, and redissolved in 50 μL ACN for HPLC analysis. For the BL21(DE3) sample, an additional 1.2 μL aliquot of DMB-S-MMP was added after 12 hours to replenish the hydrolyzed substrates.” left out"}, "[3]": {"test_system": "E. coli", "assay": "Whole-cell based hydrolysis / stability of thioester in E. coli cultures", "design": "species or system Escherichia coli", "conditions": "BL21(DE3)/pAW31 culture, 18° C., 24 hours", "protocol": "The selected 57 mutants from the Keio collection together with BW25113, BL21(DE3) and BL21(DE3)/pAW31 were grown to saturation in a 96-well deep well plate in 1 mL LB media at 37° C. Neat DMB-S-MMP (5 μL) was added to each culture with a final concentration of 20 mM. […] The organic phase was dried, redissolved in 20 μL acetonitrile (CH3CN), and 1 μL was spotted on a TLC plate (silica gel 60 F254). The TLC plates were developed with 20% EA in hexane and visualized with iodine.\nAnalysis of the compounds were also performed with HPLC using an analytical C18 column (Alltech Apollo 5 u, 150 mm×4.6 mm); linear gradient: 60% CH3CN in water (0.1% trifluoroacetic acid [TFA]) to 95% CH3CN in water (0.1% TFA) over 5 min, 95% CH3CN in water (0.1% TFA) for 10 minutes, with a flow rate of 1 mL/min. HPLC retention times (tR) were as follows: MJ lactone form: 3.40 min; DMB-S-MPA: 3.82 min; DMB-S-MMP: 6.80 min; simvastatin lactone form: 8.45 min. Both MJ and simvastatin acids were lactonized before HPLC analysis.\nThe mutants, wild type […] and BL21(DE3) were grown to saturation in LB broth in a 96-well plate. […] The cultures were acidified, extracted with ethyl acetate, and the organic phases were analyzed by thin layer chromatography (TLC) using a mobile phase (20% ethyl acetate in hexane) that enabled separation of DMB-S-MMP and DMB-S-MPA (FIG. 14A). […]"}, "[4]": {"biological_target": "T1, LovD (Aspergillus terreus, UniProt Q9Y7D1)", "T1 sequence (Q9Y7D1 1-413)": "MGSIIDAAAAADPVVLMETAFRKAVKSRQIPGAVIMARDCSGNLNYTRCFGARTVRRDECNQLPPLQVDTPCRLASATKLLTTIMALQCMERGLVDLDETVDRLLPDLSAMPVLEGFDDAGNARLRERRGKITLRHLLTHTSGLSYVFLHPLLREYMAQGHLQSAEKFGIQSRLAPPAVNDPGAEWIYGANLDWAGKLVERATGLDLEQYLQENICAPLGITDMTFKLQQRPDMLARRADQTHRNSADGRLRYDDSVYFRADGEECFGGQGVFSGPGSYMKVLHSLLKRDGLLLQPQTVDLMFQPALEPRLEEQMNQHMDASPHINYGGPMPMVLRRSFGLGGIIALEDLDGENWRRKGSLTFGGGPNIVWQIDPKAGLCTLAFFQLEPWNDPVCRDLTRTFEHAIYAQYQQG", "conditions": "label = product formed", "method": "Assay conditions: 1 mM monacolin J, 10 mM acyl-SNAC, 100 uM LovD, 50 mM HEPES, pH 7.9, 25 degrees C., 6 hrs."}, "[5]": {"substrate": "CCC(C)(C)C(=O)SCCC(=O)OC", "assay": "LovD transacylation assay: acyl transfer from acyl thioester to C8 hydroxyl of monacolin J, HPLC", "type": "biochemical, Aspergillus terreus", "conditions": "other: monacolin J fixed at 2 mM; DMB-S-MMP 0.2-10 mM, 5% DMSO; pH 7.9", "protocol": "We first examined if an acyl-CoA can be used as substrate for the transacylation reaction. The uninterrupted gene of LovD was amplified from A. terreus genomic DNA using splice by overlap extension PCR and was inserted into the pET28a expression vector. Overexpression of soluble, N-terminal 6×His fusion LovD was performed in E. coli strain BL21(DE3)/pAW31. LovD was purified using Nickel-NTA affinity column to homogeneity (final yield˜40 mg/L). The substrate monacolin J (1 mM) was prepared through the LiOH hydrolysis of lovastatin and was added to a reaction mixture containing pure LovD (10 μM) and butyryl-CoA (4 mM), which is a commercially available acyl-CoA that best mimics the natural α-methylbutyrate side chain. The reaction mixture was incubated at room temperature, extracted with ethyl acetate and analyzed by HPLC and LC-MS (FIG. 5).\nWe assayed the tolerance of LovD towards different acyl substituents by performing the transacylation assay with various commercially available acyl-CoAs (Table 1A). […]\nExpression and purification of LovD has been previously described in detail (see, e.g., Xie et al., 2006, Chem Biol 13: 1161-1169). […] The initial velocities (ki) of the acyl substrates were determined with 10 μM LovD, 1 mM monacolin J and 4 mM of the thioester. […] The percent conversion of monacolin J to simvastatin was determined by HPLC analysis (C18). […]"}, "[6]": {"substrate": "CC[C@H](C)C(=O)O[C@H]1C[C@@H](C)C=C2C=C[C@H](C)[C@H](CC[C@@H]3C[C@@H](O)CC(=O)O3)[C@H]21", "assay": "LovD catalyzed hydrolysis of lovastatin / simvastatin to monacolin J, HPLC", "type": "biochemical, Aspergillus terreus", "conditions": "other: statin as the only substrate; pH 7.9; 25.0 °C", "protocol": "FIG. 5. […] (B) Conversion as a function of time for (⋄) butyryl-CoA (♦) butyryl-SNAC, (▪) butyryl-SMTG. The apparent kcat values reported throughout the text are initial turnover rates in the linear range. (C) Michaelis-Menten plot of LovD catalyzed hydrolysis of lovastatin to monacolin J. The reaction progress is monitored by HPLC. kcat: 0.21±0.01 min^−1; Km: 0.56±0.05 mM.\nAs shown in FIG. 5A (trace a), 87% conversion of monacolin J to 4 was observed after 10 hours using butyryl-CoA as an acyl donor. […] The observed 87% conversion is likely approaching equilibrium as evident in FIG. 5B. To examine the biochemical nature of the equilibrium conversion, we assayed whether LovD also catalyzes the reverse, hydrolysis reaction."}},
  "note": "Where “and” joins values, the source holds several entries; their conditions need not be identical. Identical values can stand only once.",
  "data": [
    {"molecule": "CCC(C)(C)C(=O)SCCC(=O)OC", "note": "[DMB-S-MMP, α-dimethylbutyryl-S-methyl-mercaptopropionate]", "values": [
      {"measurement": "conversion of monacolin J to simvastatin, whole cell", "setting": "[1]; 15 mM monacolin J, 25 mM DMB-S-MMP, cells concentrated 10×, room temperature, 24 hours", "result": "99% and > 99%"},
      {"measurement": "conversion of MJ acid to simvastatin acid, whole cell", "setting": "[2]", "result": "> 99", "unit": "%"}
    ]},
    {"molecule": "COC(=O)CSC(=O)c1ccccc1", "note": "[benzoyl-SMTG]", "values": [
      {"measurement": "conversion of monacolin J (benzoylation) in vivo", "setting": "[1]; 0.8 mM monacolin J, 4 mM acyl donor, 18° C., within 20 hours post-induction", "result": 40, "unit": "%"},
      {"measurement": "stability of acyl donor in E. coli culture", "setting": "[3]", "result": "rapidly degraded"}
    ]},
    {"molecule": "CCC(C)(C)C(=O)OC1CC(O)C=C2C=CC(C)C(CCC(O)CC(O)CC(=O)O)C21", "note": "(centres unmarked) [huvastatin]", "values": [
      {"measurement": "apparent turnover rate for synthesis from tetra-ol 7 using the corresponding acyl-thioester", "setting": "[4]", "result": 0.03, "unit": "min⁻¹"}
    ]},
    {"molecule": "LovD (Aspergillus terreus) (protein, 6xHis (N); made in house; host or cells: E. coli BL21(DE3)/pAW31 (pET28a)) MGSIIDAAAAADPVVLMETAFRKAVKSRQIPGAVIMARDCSGNLNYTRCFGARTVRRDECNQLPPLQVDTPCRLASATKLLTTIMALQCMERGLVDLDETVDRLLPDLSAMPVLEGFDDAGNARLRERRGKITLRHLLTHTSGLSYVFLHPLLREYMAQGHLQSAEKFGIQSRLAPPAVNDPGAEWIYGANLDWAGKLVERATGLDLEQYLQENICAPLGITDMTFKLQQRPDMLARRADQTHRNSADGRLRYDDSVYFRADGEECFGGQGVFSGPGSYMKVLHSLLKRDGLLLQPQTVDLMFQPALEPRLEEQMNQHMDASPHINYGGPMPMVLRRSFGLGGIIALEDLDGENWRRKGSLTFGGGPNIVWQIDPKAGLCTLAFFQLEPWNDPVCRDLTRTFEHAIYAQYQQG", "values": [
      {"measurement": "Km", "setting": "[5]", "result": "670 ± 40", "unit": "µM"},
      {"measurement": "Km", "setting": "[6]", "result": "560 ± 50", "unit": "µM"},
      {"measurement": "kcat", "setting": "[6]", "result": "0.0035 ± 0.00017", "unit": "s⁻¹"}
    ]}
  ]
}
